Assay results reported in patent US20160175308A1, “THERAPEUTIC AGENTS FOR MODULATING THYMIC FUNCTION AND/OR GROWTH AND/OR TREATING VARIOUS DISORDERS” (UCL BUSINESS PLC, priority 2013, published 2016).

What was measured:
Format in all cases: in vivo, mouse
C57/BI6N wildtype mice [1] = assay: Lapatinib treatment of elderly mice: thymus cell counts and flow cytometry of T lymphocyte populations; settings: n=5/group
Experimental: […] All mice were housed on a 12 hour light/dark cycle, in individually ventilated cages with access to standard rodent diet (Harlan, UK) and tap water ad libitum. Mice were euthanized by intraperitoneal injection of 0.2 mL sodium pentobarbital (Euthatal, Merial Animal Health, UK).
(§1) Dox was administered ad libitum in a foil-wrapped standard drinking bottle; fresh Dox was given every 48 hours. 300 mg Lapatinib (#J62401, Alfa Aesar, USA) was prepared in 12 mL DMSO (#472301, Sigma, UK) at a final concentration of 25 mg/mL. Mice were given 2.5 mg (100 µL) Lapatinib or an equivalent dose of DMSO alone 5 times per week for 4 weeks by oral gavage. One hour prior to euthanasia all mice for subsequent histological analysis were injected with 150 μL of 10 mg/mL BrdU solution (Invitrogen, UK) to label proliferating cells.
Thymus and lymph nodes were prepared for flow cytometry by incubation in a 2 mL solution of RPMI […] (Invitrogen, UK) containing Liberase TL (0.3 mg/mL; Roche, Germany) plus DNAse I (0.2 mg/ml, Roche, Germany) for 30 minutes at 37 degrees Celsius. Thymus and lymph node tissue was then macerated through a […] filter (BD, USA) and enzymes inactivated by further washing with 30 mL PBS (Invitrogen, UK) plus 5 mM EDTA (Sigma, UK). This single cell suspension was centrifuged for 5 minutes at 1250 rpm, the supernatant removed, and the cell pellet resuspended in 3 mL RPMI 1640 (lymph nodes) or 5 mL RPMI 1640 (thymus). Total cell counts were obtained using a Millicell automated hematocytometer. Blood cells were prepared for flow cytometry by direct blood collection from the descending aorta in a capillary Microvette tube containing EDTA (CB 300 K2E, Sarstedt, Germany), elimination of red blood cells using lysis buffer (R7757, Sigma, UK) and dilution in 30 mL RPMI 1640. Blood cells were then pelleted by centrifugation as above and resuspended in 20 mL RPMI 1640 and cell counts obtained using a Millicell automated hematocytometer.
All cell suspensions (thymus, lymph node, blood) were diluted to 1 million cells/mL for antibody staining and flow cytometry analysis. Antibodies for flow cytometry analysis were as follows: CD3-FITC (17a2, Invitrogen, UK), CD4-PE (I3t4, BD Pharmingen, UK), CD8a-Q605 (53-6.7, eBioscience, UK), CD19-A421 (6D5, Biolegend, UK), CD11b-A421 (eBioscience, UK), Ter119-A421 (TER119, eBioscience, UK), CD47-APC780 (1M7, eBioscience, UK), CD25-A660 (7D4, eBioscience, UK), Nk1.1-APC780 (PK136, eBioscience, UK), NkP46-a660 (29a1.4, eBioscience, UK). All antibodies were diluted to 2 μL/10̂6 cells in 1 mL final volume; unstained and single antibody stained controls were used to set all voltage and gate compensations. Antibody staining was for 30 minutes at 4 degrees Celsius, after which time cells were centrifuged at 1250 rpm for 5 minutes and cell pellets resuspended in 1 mL RPMI 1640. All flow cytometry analysis was performed on either an LSR2 or LSR Fortessa flow cytometry system. A minimum of 10,000 events was collected for each analysis (phenotype, T cell developmental stage, peripheral blood and lymph node cell analysis). All experiments represent at least an n=4 for each condition and all analyses were done using FlowJo software. Thymus tissue sections were prepared for BrdU immunohistochemistry by dewaxing using an automated tissue staining system (TissueTek), blocking for 1 hour at room temperature in blocking solution (PBS containing 10% fetal bovine serum (10270-106, Invitrogen, UK) plus fish skin gelatin (G7765, Sigma, UK)). A BrdU primary antibody (rat, Covance, UK) was diluted in blocking solution and slides were incubated overnight in this antibody solution at 4 degrees Celsius. Slides were then washed in PBS and an anti-rat Alexa 555 secondary antibody (Invitrogen, UK) was applied in blocking solution for 3 hours at room temperature, washed, and slides coverslipped using Mowiol mounting media.

C57/BI6N wildtype mice [2] = assay: Lapatinib treatment of geriatric mice: thymus size/weight; settings: 18 month old mice, 2.5 mg/day lapatinib oral gavage 5x/week for 5 weeks vs DMSO control, n=10/group, p<0.05
C57/BI6N wildtype mice [3] = assay: Lapatinib treatment of geriatric mice: thymus histology and BrdU immunohistochemistry; settings: lapatinib vs control
Experimental: Eighteen month old C57/BI6N wildtype mice used in Lapatinib studies were purchased from Charles River Laboratories (UK). All mice were housed on a 12 hour light/dark cycle, in individually ventilated cages with access to standard rodent diet (Harlan, UK) and tap water ad libitum. Mice were euthanized by intraperitoneal injection of 0.2 mL sodium pentobarbital (Euthatal, Merial Animal Health, UK).
as §1
All cell suspensions (thymus, lymph node, blood) were diluted to 1 million cells/mL for antibody staining and flow cytometry analysis. Antibodies for flow cytometry analysis were as follows: CD3-FITC (17a2, Invitrogen, UK), CD4-PE (I3t4, BD Pharmingen, UK), CD8a-Q605 (53-6.7, eBioscience, UK), CD19-A421 (6D5, Biolegend, UK), CD11b-A421 (eBioscience, UK), Ter119-A421 (TER119, eBioscience, UK), CD47-APC780 (1M7, eBioscience, UK), CD25-A660 (7D4, eBioscience, UK), Nk1.1-APC780 (PK136, eBioscience, UK), NkP46-a660 (29a1.4, eBioscience, UK). All antibodies were diluted to 2 μL/10̂6 cells in 1 mL final volume; unstained and single antibody stained controls were used to set all voltage and gate compensations. Antibody staining was for 30 minutes at 4 degrees Celsius, after which time cells were centrifuged at 1250 rpm for 5 minutes and cell pellets resuspended in 1 mL RPMI 1640. All flow cytometry analysis was performed on either an LSR2 or LSR Fortessa flow cytometry system. A minimum of 10,000 events was collected for each analysis (phenotype, T cell developmental stage, peripheral blood and lymph node cell analysis). […]

[4] = 15-18 month old mice vs DMSO treated controls
[5] = 15 month old mice, CD4/CD8/lineage negative thymocytes, vs DMSO

CS(=O)(=O)CCNCc1ccc(-c2ccc3ncnc(Nc4ccc(OCc5cccc(F)c5)c(Cl)c4)c3c2)o1 [Lapatinib, N-[3-chloro-4-[(3-fluorophenyl)methoxy]phenyl]-6-[5-[(2-methylsulfonylethylamino)methyl]-2-furyl]quinazolin-4-amine]
CD4 T cell production (C57/BI6N wildtype mice [1]; [4]): trend towards increased | CD8 T cell production (C57/BI6N wildtype mice [1]; [4]): trend towards increased | DN-T T cell production (C57/BI6N wildtype mice [1]; [4]): trend towards increased | production of immature (double positive, DP-T) T lymphocytes (C57/BI6N wildtype mice [1]; [4]): increases production | thymus cell abundance (C57/BI6N wildtype mice [1]; [4]): increased thymus cell abundance | DN1 (CD44+/CD25−) immature T cell abundance (C57/BI6N wildtype mice [1]; [5]): significantly reduced | DN2 (CD44+/CD25+) immature T cell abundance (C57/BI6N wildtype mice [1]; [5]): significantly reduced | DN4 (CD44/CD25 negative) cell abundance (C57/BI6N wildtype mice [1]; [5]): increased | thymus size / thymus weight (C57/BI6N wildtype mice [2]): increase thymus weight | thymus size / thymus weight (C57/BI6N wildtype mice [2]; listed as lapatinib): increases thymus size | BrdU cell abundance (thymocyte proliferation) (C57/BI6N wildtype mice [3]; BrdU staining, n=5/treatment type, p<0.05): statistically significant increase in thymocyte proliferation | thymus histological appearance (cortico-medullary boundaries) (C57/BI6N wildtype mice [3]; H&E sections): restored thymic cortico-medullary boundaries and improved overall thymus histological appearance | thymus involution (C57/BI6N wildtype mice [3]; elderly mice): reverses thymus involution
